In patent publication US8088819B2, “Derivatives of substituted 3-phenyl-1-(phenylthienyl)propan-1-ones and of 3-phenyl-1-(phenylfuranyl) propan-1-ones, preparation and use” (priority 2006, dated 2012):

Key:
[1] = test system: MCP1 secretion in human monocytes (THP1); assay: MCP1 secretion by human monocytes stimulated with PMA (ELISA); assay type: cell-based; conditions: at 1 μm, 24 h
Procedure: The antiinflammatory effects of the compounds according to the invention were evaluated by measuring the secretion and expression of macrophages chemoattractant protein (MCP1) and of matrix metalloproteinase 9 (MMP9) by monocytes treated with the compounds according to the invention for 24 hours and stimulated with PMA (phorbol 12-myristate 13-acetate, which causes an inflammatory response of the cells). The more the amount of MCP1 secreted is reduced, the greater the inhibitory action of the compounds according to the invention on the inflammatory reaction. […]
The treatment medium is recovered and the concentration of MCP1 is measured using the ELISA kit “Human MCP1 Elisa set” (BD OptEIA; 555179) following the manufacturer's recommendations.
A human antiMCP1 monoclonal antibody is fixed on a plate, then the supernatants, containing the MCP1 secreted by the cells, are distributed. […] A third antibody, conjugated and coupled to a peroxidase enzyme, makes it possible, in the presence of substrate, to initiate an enzymatic reaction, the result of which is a coloration that is proportional to the amount of MCP1 fixed, and can be measured by spectrophotometry. […]
The induction factor, i.e. the ratio of the signal induced by the compound according to the invention to the signal of the control group, was then calculated. […]

C57Bl6 mouse = assay: Plasma cholesterol assays and lipoprotein distribution in the C57Bl6 mouse (compounds 4 and 7); assay type: in vivo; conditions: for lipid profile: C57Bl6 mice treated for 14 days; for plasma HDL-cholesterol levels / plasma total cholesterol levels / plasma HDL-cholesterol level (distribution of cholesterol in the plasma lipoprotein fractions): C57Bl6 mouse, 14 days; for plasma HDL-cholesterol levels / plasma total cholesterol levels: 50 mpk oral; for plasma HDL-cholesterol level (distribution of cholesterol in the plasma lipoprotein fractions): 50 mpk
Procedure: The effect of the compounds according to the invention was evaluated in vivo in the C57Bl6 mouse after 14 days of treatment by the oral route. At the end of the treatment, the distribution of cholesterol in the various plasma lipoprotein fractions was determined. This was compared with the profile obtained in the control animals (not treated with the compounds according to the invention). The effect of the compounds according to the invention was evaluated in the C57Bl6 mouse by measuring the plasma levels of total cholesterol and of HDL-cholesterol after 14 days of treatment by the oral route. These levels were compared with those obtained with control animals (not treated with the compounds according to the invention). The measured difference provides evidence of the antilipemic effect of the compounds according to the invention.
(§1) Female C57Bl6 mice were kept under a cycle of light and darkness of 12/12 hours at a constant temperature of 20±3° C. After acclimation for one week, the mice were weighed and put into groups of 6 animals selected so that the distribution of their body weight, of their plasma lipid levels and of total cholesterol determined for the first time before the experiment, is uniform. The test compounds were suspended in carboxymethylcellulose (Sigma C4888) and administered by intragastric force feeding, at a rate of once per day for 14 days at the chosen dose. The animals had free access to water and to food (standard diet). At the end of the experiment, the animals were anesthetized after fasting for 4 hours, a blood sample was taken using anticoagulant (EDTA), then the mice were weighed and euthanased. The plasma was separated by centrifugation at 3000 rev/min for 20 minutes, and the samples were stored at +4° C.
(§2) The plasma concentrations of total cholesterol were measured by enzyme assays (bioMérieux-Lyon-France) following the supplier's recommendations.
(§3) The low-density lipoproteins (VLDL and LDL) were precipitated with phosphotungstate. The precipitate was removed by centrifugation. The HDL-cholesterol present in the supernatant was quantified by enzyme assays (bioMérieux-Lyon-France) following the supplier's recommendations.
The various lipid fractions (VLDL, LDL, HDL) of the plasma were separated by gel filtration chromatography. The concentrations of cholesterol were then measured in each fraction by enzyme assays (bioMérieux-Lyon-France) following the supplier's recommendations.

dyslipidemic E2/E2 mice = assay: Plasma lipid assays and lipoprotein distribution in the E2/E2 mouse; assay type: in vivo
Procedure: The antilipemic and HDL-cholesterol synthesis stimulating properties of the compounds according to the invention were evaluated in vivo by assay of the plasma lipids, analysis of the distribution of cholesterol and of triglycerides in the various plasma lipoprotein fractions and measurement of the expression of the target genes of the PPARs in the liver and skeletal muscle after treatment of dyslipidemic E2/E2 mice with compound 2.
The murine model used is the ApoE2/E2 type mouse, a transgenic mouse for the E2 isoform of human apolipoprotein E (Sullivan P M et al., 1998). In humans, this apolipoprotein, a constituent of the low and very low density lipoproteins (LDL-VLDL), occurs in three isoforms E2, E3 and E4. The E2 form has a mutation on an amino acid in position 158, which greatly weakens the affinity of this protein for the LDL receptor. The clearance of the VLDLs is accordingly almost zero. There is then accumulation of low-density lipoproteins and mixed hyperlipidemia called type III (high cholesterol and triglycerides).
as §1, with “Apo E2/E2 transgenic” for “Female C57Bl6”, “weights and” for “weight,”, “levels” for “levels and of total cholesterol”, “experiment are” for “experiment, is”, “13” for “14”
The various lipid fractions (VLDL, LDL, HDL) of the plasma were separated by gel filtration chromatography. The concentrations of cholesterol and of triglycerides were then measured in each fraction by enzyme assays (bioMérieux-Lyon-France) following the supplier's recommendations.
as §2, §3

[2] = 50 mpk oral, 7 and 13 days, vs control animals

| SMILES | secretion of MCP1 in human monocytes [1] | lipid profile (C57Bl6 mouse) | plasma HDL-cholesterol levels (C57Bl6 mouse) | plasma total cholesterol levels (C57Bl6 mouse) | plasma HDL-cholesterol level (distribution of cholesterol in the plasma lipoprotein fractions) (C57Bl6 mouse) | plasma HDL-cholesterol level (dyslipidemic E2/E2 mice; [2]) | plasma total cholesterol level (dyslipidemic E2/E2 mice; [2]) | level of triglycerides present in the VLDL (dyslipidemic E2/E2 mice; 50 mpk, 13 days) | plasma HDL-cholesterol level (distribution of cholesterol in plasma lipoprotein fractions) (dyslipidemic E2/E2 mice; 50 mpk, 13 days) | plasma levels of LDL and VLDL (distribution of cholesterol in plasma lipoprotein fractions) (dyslipidemic E2/E2 mice; 50 mpk, 13 days) |
| --- | --- | --- | --- | --- | --- | --- | --- | --- | --- | --- |
| CC(C)(Oc1ccc(CCC(OCc2ccccc2)c2ccc(-c3ccc(C(F)(F)F)cc3)s2)c(Cl)c1Cl)C(=O)O (stereo not drawn) [Compound 7, 2-(4-(3-(benzyloxy)-3-(5-(4-(trifluoromethyl)phenyl)thien-2-yl)propyl)-2,3-dichlorophenoxy)-2-methylpropanoic acid] | significant decrease | improve | nonsignificant increase | significantly increased | increased |  |  |  |  |  |
| CC(C)(Oc1ccc(CCC(=O)c2ccc(-c3ccc(C(F)(F)F)cc3)s2)c(Cl)c1Cl)C(=O)O [Compound 2, 2-(2,3-dichloro-4-(3-oxo-3-(5-(4-(trifluoromethyl)phenyl)thien-2-yl)propyl)phenoxy)-2-methylpropanoic acid] |  |  |  |  |  | increased significantly | lowered significantly | lowered | increased | significant decrease |
| CC(C)(Oc1ccc(CCC(=O)c2cc(-c3ccc(C(F)(F)F)cc3)cs2)c(Cl)c1Cl)C(=O)O [Compound 11, 2-(2,3-dichloro-4-(3-oxo-3-(4-(4-(trifluoromethyl)phenyl)thien-2-yl)propyl)phenoxy)-2-methylpropanoic acid] | significant decrease |  |  |  |  |  |  |  |  |  |
| CC(C)(Oc1ccc(CCC(O)c2ccc(-c3ccc(C(F)(F)F)cc3)s2)c(Cl)c1Cl)C(=O)O (stereo not drawn) [Compound 4, 2-(2,3-dichloro-4-(3-hydroxy-3-(5-(4-(trifluoromethyl)phenyl)thien-2-yl)propyl)phenoxy)-2-methylpropanoic acid] |  | improve | significantly increased | significantly increased | increased |  |  |  |  |  |
